Results on 2 molecules are retold here after PMC9863607, “Combined Use of Antimicrobial Peptides with Antiseptics against Multidrug-Resistant Bacteria: Pros and Cons” (Pharmaceutics, 2023).

Each structure is given as a SMILES string.

For assay [1], the system named is K. pneumoniae ESBL 344/17. Description: microbe, parasite or virus in culture. The assay is classed as cell-based, Klebsiella pneumoniae. As to conditions: antiseptics and surfactants; MHB, overnight 37 °C; median of 3–4 independent experiments; prontosan as polyhexanide. How it is done: (§1) In this regard the test plates were preincubated for 1 h at 37 °C with 0.1% bovine serum albumin (BSA) in distilled water before use. Bacteria were grown overnight at 37 °C with shaking in 2.1% Müller–Hinton broth (MHB), and then a small aliquot was transferred into the fresh portion of the same medium for another 2–3 h on the day of the experiment to provide us with the log phase bacterial suspension. Concentration of bacterial cells in suspension was evaluated based on absorbance at 620 nm and diluted down to 1 × 10^6 CFU/mL with MHB. Equal volumes of the prepared bacterial suspension in MHB and two-fold serial dilutions of the antimicrobials in 10 mM sodium phosphate (Na-P) buffer (pH 7.4) with 0.1% BSA were mixed and incubated overnight at 37 °C. The lowest concentration where no bacterial growth was observed the next day under visual examination was considered the minimal inhibitory concentration. The test was repeated at least three times, and the final MIC value was established as a median result. Each experiment was conducted in triplicates. Terasaki microplates (10 µL end volume, V-shaped bottom; Sarstedt, Nümbrecht, Germany) were used.

The test system of a further assay is S. aureus 1399/17. Description: microbe, parasite or virus in culture. The assay is classed as cell-based, Staphylococcus aureus. To be noted: antiseptics and surfactants; MHB, overnight 37 °C; median of 3–4 independent experiments; prontosan as polyhexanide. How it is done:
as §1

Another assay deals with P. aeruginosa MDR 522/17. Description: microbe, parasite or virus in culture. The assay is classed as cell-based, Pseudomonas aeruginosa. As to conditions: antiseptics and surfactants; MHB, overnight 37 °C; median of 3–4 independent experiments; prontosan as polyhexanide. The method, then: as §1
Another assay has as its system E. coli ESBL 521/17. Nature of the assay: microbe, parasite or virus in culture. The assay is classed as cell-based, Escherichia coli. To be noted: antiseptics and surfactants; MHB, overnight 37 °C; median of 3–4 independent experiments; prontosan as polyhexanide. The method, then:
as §1

The subject of a further assay is E. coli ML-35p. Nature of the assay: Broth microdilution assay (MIC, planktonic bacteria). The assay is classed as cell-based, Escherichia coli. As to conditions: antiseptics and surfactants; MHB, overnight 37 °C; median of 3–4 independent experiments; prontosan as polyhexanide. How it is done: as §1
On the technique in general: In broth dilution the organism is exposed to a series of concentrations in liquid medium.

The subject of assay [2] is drug-resistant clinical isolates and E. coli ML-35p. Nature of the assay: Checkerboard titration, all tested bacteria together. It is filed as cell-based. To be noted: planktonic bacteria. The method, then: The mode of interaction of the test substances while applied in combinations was analyzed based on the calculation of the fractional (or combination) indices—the mathematical “embodiment” of the Loewe additivity paradigm that we used for the classification of combination effects in this study. As synergy is generally defined as a greater than additive effect, and antagonism as a lower than additive effect, the main problem is to establish a reference level for this additive effect. The Loewe approach uses the idea of the self-additivity of an individual substance; thus, the individual activity may be regarded as an additivity control. To identify additivity, synergy, or antagonism in Loewe terms, one should choose a fixed level of the studied effect and then compare the doses of individual substances required to reach this level, with the fractional doses of the substances in combination providing the same level of the effect.
In the case of activity testing of combinations toward planktonic bacteria, a checkerboard titration scheme was used to create an array of mixtures of the two substances (A and B) in various concentrations by diluting the first one two-fold row-by-row and the second one column-by-column. The left column and the bottom row contained the dilutions of only one substance (A or B) to control their individual activity levels in every experiment. […]

A further assay concerns A. baumannii 7226/16. Description: microbe, parasite or virus in culture. It is filed as cell-based, Acinetobacter baumannii. As to conditions: antiseptics and surfactants; MHB, overnight 37 °C; median of 3–4 independent experiments; prontosan as polyhexanide. The method, then:
as §1

The next assay relates to bacteria. As to conditions: cited from earlier work. The text has this:
Among surfactants, as was expected based on the literature data, sodium lauroyl sarcosinate was the most universally active toward bacteria. […] This is especially interesting in light of the fact that prontosan has an amidopopyl betaine in its composition alongside the poly ...

For the molecule `[Na+].[O-]Cl` [Sodium hypochlorite], the MIC was 5000 µg/mL in assay [1]; 10,000 µg/mL in the assay on S. aureus 1399/17; 5000 µg/mL in the assay on P. aeruginosa MDR 522/17; 5000 µg/mL in the assay on E. coli ESBL 521/17; 5000 µg/mL with E. coli ML-35p; 2500 µg/mL with A. baumannii 7226/16. In assay [2], the “Type of interaction with AMPs, antibacterial effect of combinations” value is given as “antagonistic interaction”.

In the case of `CCCCCCCCCCCC(=O)N(C)CC(=O)[O-].[Na+]` [Sodium lauroyl sarcosinate], the MIC is given as 12,500 µg/mL in assay [1]; >50,000 µg/mL in the assay on S. aureus 1399/17; 50,000 µg/mL in the assay with P. aeruginosa MDR 522/17; 12,500 µg/mL in the assay with E. coli ESBL 521/17; 6250 µg/mL against E. coli ML-35p; 25,000 µg/mL against A. baumannii 7226/16. The “MICs by disk-diffusion method” value in the assay with bacteria was 37.5 to 300 mg/mL. Further, the “Type of interaction with AMPs, antibacterial effect of combinations” value in assay [2] is listed as “antagonistic interaction”.
